Measured values taken from patent EP1207395A1, “METHOD FOR MEASURING KINASE ACTIVITY OF CYCLIN/CDK COMPLEX” (Medical & Biological Laboratories Co., Ltd., priority 1999, dated 2001).

Tests used:
CDK4 [1] = target: T1, CDK4 (Homo sapiens, UniProt P11802); settings: reported in the literature (Meijer et al. 1997); cited from earlier work
cyclin D1/CDK4 complex = target: T2, cyclin D1/CDK4 complex (Homo sapiens, UniProt P11802); assay: ELISA method, inhibitory effect on cyclin D1/CDK4 complex; assay type: biochemical; settings: for OD levels (inhibitory effect): RB301 substrate, 100 µM ATP, Figs. 5 and 9
T2 construct: 6xHis (N); made in house; host or cells: Sf9 insect cells (baculovirus)
T2 sequence (P11802 whole entry): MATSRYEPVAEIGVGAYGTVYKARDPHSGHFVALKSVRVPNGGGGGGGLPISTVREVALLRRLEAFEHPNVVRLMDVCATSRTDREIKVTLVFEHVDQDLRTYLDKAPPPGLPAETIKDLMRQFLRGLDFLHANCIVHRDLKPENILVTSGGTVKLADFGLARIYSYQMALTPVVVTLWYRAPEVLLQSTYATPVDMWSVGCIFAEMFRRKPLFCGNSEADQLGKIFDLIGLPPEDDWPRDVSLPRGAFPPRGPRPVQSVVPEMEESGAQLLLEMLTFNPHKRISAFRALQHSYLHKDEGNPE
T2 sequence (P24385 whole entry partner): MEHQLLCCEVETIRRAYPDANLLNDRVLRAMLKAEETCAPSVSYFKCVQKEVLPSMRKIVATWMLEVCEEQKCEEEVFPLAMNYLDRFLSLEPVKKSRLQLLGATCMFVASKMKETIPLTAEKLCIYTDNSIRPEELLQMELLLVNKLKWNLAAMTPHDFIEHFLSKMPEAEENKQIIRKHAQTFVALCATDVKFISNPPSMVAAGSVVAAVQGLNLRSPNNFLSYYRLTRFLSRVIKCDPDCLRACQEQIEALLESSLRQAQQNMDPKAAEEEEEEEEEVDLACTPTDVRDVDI
Description: (§1) Clone 1C12 (specific to Thr356), clone 4E4 (specific to Ser612), and clone 2C4 (specific to Ser780) were used as the anti-phosphorylated RB monoclonal antibodies. Each anti-phosphorylated RB monoclonal antibody was diluted to a concentration of 10 µg/ml in PBS, and 100 µl of the diluted solution was added to each well of the plate followed by incubating at 4 °C for 15 hours. After removing the antibody solution, the reaction product in each well was blocked at 4°C for 24 hours in a PBS solution (5% sucrose, 0.1% NaN3) containing 2.5% of BSA. The plate was subjected to measurements after airdrying.
The RB amino acid sequence 301aa-928aa was expressed as a GST fusion protein in Escherichia coli, and the protein (RB301) purified using glutathione Sepharose and phosho-Cellulose columns (P11) was used as the substrate. Cyclin D1/CDK4, cyclin A/CDK2, cyclin E/CDK2, and cyclin B/CDK1, respectively, were expressed in the sf9 cells using baculovirus, and were purified using a cobalt column and phospho-Cellulose column in order to use them as the cyclin/CDK complexes.
(§2) RB301 (10µg/ml), 100µM ATP, and respective Cyclin/CDK were added to the phosphate buffer (50 mM HEPES, 0.05% Triton X, 15 mM MgCl2, 2 mM EGTA, 200 µg/ml BSA) (final reaction volume of 180 µl), and was reacted for 30 minutes at 30°C. The reaction was stopped by adding 180 µl of PBS (10% skim milk, 350 mM NaCl, 50 mM EDTA) to each assay system.
After completing the phosphorylation reaction, 100 µl of each of the reaction solutions was added to the antibody sensitization plate, which was incubated at room temperature for 1 hour (primary reaction). After washing with PBS [washing solution: PBS (500 mM NaCl, 0.1% Tween 20)] five times using a wash-bottle, 100 µl of anti-GST polyclonal antibody solution (0.5 µg/ml) was added to each well of the microplate, followed by incubation at room temperature for 1 hour (secondary reaction). After washing with PBS [washing solution: PBS (500 mM NaCl, 0.1% Tween 20)] five times using a wash-bottle, 100 µl of HRP labeled anti-rabbit IgG antibody solution (20,000-fold dilution) was added to each well of the microplate, followed by incubation at room temperature for 30 minutes (tertiary reaction). Then, the reaction solution was colored (coloring reaction) at room temperature for 30 minutes using TMB (tetramethylbentidine).

cyclin A/CDK2 complex = target: T3, cyclin A/CDK2 complex (Homo sapiens, UniProt P24941); assay: ELISA method, inhibitory effect on cyclin A/CDK2 complex; assay type: biochemical; settings: RB301 substrate, 100 µM ATP, Figs. 3 and 7
T3 construct: 6xHis (N); made in house; host or cells: Sf9 insect cells (baculovirus)
Description: as §1
(§3) Cyclin D1/CDK4, cyclin A/CDK2, cyclin E/CDK2, and cyclin B/CDK1, respectively, were expressed in the sf9 cells using baculovirus, and were purified using a cobalt column and phospho-Cellulose column in order to use them as the cyclin/CDK complexes.
as §2
(§4) After completing the phosphorylation reaction, 100 µl of each of the reaction solutions was added to the antibody sensitization plate, which was incubated at room temperature for 1 hour (primary reaction). […]

CDK4 [2] = target: T1, CDK4; settings: against CDK4; nominal value; cited from earlier work
cyclin E/CDK2 complex = target: T4, cyclin E/CDK2 complex (Homo sapiens, UniProt P24941); assay: ELISA method, inhibitory effect on cyclin E/CDK2 complex; assay type: biochemical; settings: RB301 substrate, 100 µM ATP, Figs. 4 and 8
T4 construct: 6xHis (N); made in house; host or cells: Sf9 insect cells (baculovirus)
Description: as §1, §3, §2, §4

MEK = settings: inhibitor to MEK; nominal value of commercially available reagent; cited from earlier work
cdk2 = cdk2 (Homo sapiens, UniProt P24941); settings: against CDK2; nominal value; cited from earlier work
cyclin B/CDK1 complex = target: T5, cyclin B/CDK1 complex (Homo sapiens, UniProt P06493); assay type: biochemical; settings: ELISA method; RB301 substrate, 100 µM ATP; Figs. 2 and 6
T5 construct: 6xHis (N); made in house; host or cells: Sf9 insect cells (baculovirus)
T5 sequence (P06493 whole entry): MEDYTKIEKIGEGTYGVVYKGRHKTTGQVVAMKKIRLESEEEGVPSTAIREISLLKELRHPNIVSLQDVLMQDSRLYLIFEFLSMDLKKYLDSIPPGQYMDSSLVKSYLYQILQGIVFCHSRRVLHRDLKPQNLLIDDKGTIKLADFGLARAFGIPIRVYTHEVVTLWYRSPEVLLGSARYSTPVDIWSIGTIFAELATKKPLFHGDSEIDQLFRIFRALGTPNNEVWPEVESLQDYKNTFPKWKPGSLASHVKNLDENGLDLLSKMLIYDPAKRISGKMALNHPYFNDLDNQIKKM
T5 sequence (P14635 whole entry partner): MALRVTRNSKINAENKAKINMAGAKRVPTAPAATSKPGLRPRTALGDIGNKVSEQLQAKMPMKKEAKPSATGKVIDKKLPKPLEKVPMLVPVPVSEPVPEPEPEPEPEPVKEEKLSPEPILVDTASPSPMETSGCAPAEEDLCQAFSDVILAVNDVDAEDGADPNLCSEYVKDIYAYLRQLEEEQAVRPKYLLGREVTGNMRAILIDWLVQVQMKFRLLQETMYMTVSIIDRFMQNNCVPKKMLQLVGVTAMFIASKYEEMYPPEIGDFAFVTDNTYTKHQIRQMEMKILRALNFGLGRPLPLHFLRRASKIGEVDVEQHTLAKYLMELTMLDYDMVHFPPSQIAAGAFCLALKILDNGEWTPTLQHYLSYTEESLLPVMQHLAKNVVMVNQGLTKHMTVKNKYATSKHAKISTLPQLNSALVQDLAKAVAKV
Description: as §1, §3, §2, §4

PKC = settings: against PKC; nominal value of commercially available reagent; cited from earlier work

T1 sequence (P11802 whole entry, species assumed): as the sequence (P11802 whole entry) above
T1 sequence (P24385 whole entry partner, species assumed): as the sequence (P24385 whole entry partner) above

SMILES	inhibitory effect on cdk4 (CDK4 [1])	inhibitory effect on cyclin D1/CDK4 compared with the other three cyclin/CDK complexes (cyclin D1/CDK4 complex)	OD levels (inhibitory effect) (cyclin D1/CDK4 complex)	OD levels (inhibitory effect) (cyclin A/CDK2 complex)	IC50 (CDK4 [2]) [µM]	OD levels (inhibitory effect) (cyclin E/CDK2 complex)	IC50 (MEK) [µM]	IC50 (cdk2) [µM]	OD levels (inhibitory effect) (cyclin B/CDK1 complex)	Ki (PKC) [µM]
CC[C@H](CO)Nc1nc(NCc2ccccc2)c2ncn(C(C)C)c2n1 [Roscovitine]	remarkably weak inhibitory effect	weaker than those on the other three cyclin/CDK complexes	decreased in a inhibitor concentration-dependent manner	–	–	–	–	–	–	–
N#CC(=C(/N)Sc1ccccc1N)/C(C#N)=C(\N)Sc1ccccc1N [U0126]	–	–	almost no decrease in the OD value	almost no decrease in the OD value	> 10	almost no decrease in the OD value	0.055	> 10	–	–
COC(=O)[C@@]1(O)C[C@H]2O[C@]1(C)n1c3ccccc3c3c4c(c5c6ccccc6n2c5c31)C(=O)NC4 [K252a]	–	–	decreased in a inhibitor concentration-dependent manner	decreased in a inhibitor concentration-dependent manner	–	decreased in a inhibitor concentration-dependent manner	–	–	decreased in a inhibitor concentration-dependent manner	0.025
Cn1cnc2nc(NCCO)nc(NCc3ccccc3)c21 [Olomoucine-isomer]	–	–	almost no decrease in the OD value	–	–	–	–	–	–	–
